From paper PMC12136037, “Type II kinase inhibitors that target Parkinson’s disease–associated LRRK2” (Science Advances, 2025)

Experiments:
Experiment in all cases: DSF 100 kinase selectivity screen;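 note: compound tested at 20 µM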
Format in all cases: binding
[1] = target: T1, ~100 representative kinases (Homo sapiens, UniProt O14936); conditions: Protein CASK; average of three replicates
T1 construct: Recombinant protein kinase domains with a concentration of 2 μM
T1 sequence (O14936 1-926): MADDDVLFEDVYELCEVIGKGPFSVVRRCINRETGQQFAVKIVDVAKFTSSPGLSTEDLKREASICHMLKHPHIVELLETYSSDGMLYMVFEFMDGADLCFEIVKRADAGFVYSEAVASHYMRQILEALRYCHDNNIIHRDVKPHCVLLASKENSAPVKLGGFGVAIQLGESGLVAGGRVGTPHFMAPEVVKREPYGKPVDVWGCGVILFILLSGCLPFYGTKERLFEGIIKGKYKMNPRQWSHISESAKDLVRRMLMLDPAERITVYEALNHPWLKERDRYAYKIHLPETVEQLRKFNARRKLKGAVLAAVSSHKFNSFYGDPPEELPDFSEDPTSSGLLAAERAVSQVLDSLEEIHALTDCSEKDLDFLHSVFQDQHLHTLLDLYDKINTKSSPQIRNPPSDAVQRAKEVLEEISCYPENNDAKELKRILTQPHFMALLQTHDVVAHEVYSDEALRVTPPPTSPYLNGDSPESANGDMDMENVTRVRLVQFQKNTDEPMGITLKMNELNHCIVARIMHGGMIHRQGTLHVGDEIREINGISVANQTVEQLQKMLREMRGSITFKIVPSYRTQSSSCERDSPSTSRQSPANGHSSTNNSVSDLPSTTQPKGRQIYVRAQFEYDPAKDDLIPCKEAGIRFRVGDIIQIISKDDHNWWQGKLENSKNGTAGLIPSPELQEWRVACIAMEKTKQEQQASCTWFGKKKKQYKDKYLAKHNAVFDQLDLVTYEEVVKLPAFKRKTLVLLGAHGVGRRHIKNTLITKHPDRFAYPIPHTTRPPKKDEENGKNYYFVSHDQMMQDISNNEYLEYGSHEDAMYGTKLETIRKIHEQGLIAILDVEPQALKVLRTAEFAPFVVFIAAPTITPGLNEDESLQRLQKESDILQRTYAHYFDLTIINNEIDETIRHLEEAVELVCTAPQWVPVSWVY
Protocol: (§1) Recombinant protein kinase domains with a concentration of 2 μM were mixed with a 20 μM compound solution in dimethyl sulfoxide (DMSO), 20 mM Hepes (pH 7.5), and 500 mM NaCl. SYPRO Orange (5000×, Invitrogen) was added as a fluorescence probe (1μl/ml). Subsequently, temperature-dependent protein unfolding profiles were measured using the QuantStudio 5 realtime PCR machine (Thermo Fisher Scientific, Waltham, MA, USA). […] The temperature was raised with a step rate of 3°C/min. […] Differences in melting temperature are given as ΔTm values in degrees Celsius. […]

[2] = target: T2, ~100 representative kinases (Homo sapiens, UniProt Q96NX5); conditions: Protein CAMK1G; average of three replicates
T2 construct: Recombinant protein kinase domains with a concentration of 2 μM
Protocol: as §1

[3] = target: T3, ~100 representative kinases (Homo sapiens, UniProt P49761); conditions: Protein CLK3; average of three replicates
T3 construct: Recombinant protein kinase domains with a concentration of 2 μM
T3 sequence (P49761 whole entry, the tested form may be a part): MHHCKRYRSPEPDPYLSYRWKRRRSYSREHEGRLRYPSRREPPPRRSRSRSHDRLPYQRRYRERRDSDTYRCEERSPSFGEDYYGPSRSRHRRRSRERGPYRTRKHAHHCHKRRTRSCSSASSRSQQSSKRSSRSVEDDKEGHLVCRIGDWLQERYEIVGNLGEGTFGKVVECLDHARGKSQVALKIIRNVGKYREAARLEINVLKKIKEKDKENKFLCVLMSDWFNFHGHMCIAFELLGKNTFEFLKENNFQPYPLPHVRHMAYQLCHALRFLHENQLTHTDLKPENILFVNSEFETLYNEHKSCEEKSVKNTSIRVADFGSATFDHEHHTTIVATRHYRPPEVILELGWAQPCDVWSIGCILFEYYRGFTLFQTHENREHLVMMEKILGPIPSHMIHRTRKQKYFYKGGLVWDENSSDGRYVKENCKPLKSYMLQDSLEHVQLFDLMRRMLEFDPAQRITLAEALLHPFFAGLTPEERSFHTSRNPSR
Protocol: as §1

[4] = target: T4, ~100 representative kinases (Homo sapiens, UniProt Q99986); conditions: Protein VRK1; DSF; average of three replicates
T4 construct: Recombinant protein kinase domains with a concentration of 2 μM
T4 sequence (Q99986 1-396): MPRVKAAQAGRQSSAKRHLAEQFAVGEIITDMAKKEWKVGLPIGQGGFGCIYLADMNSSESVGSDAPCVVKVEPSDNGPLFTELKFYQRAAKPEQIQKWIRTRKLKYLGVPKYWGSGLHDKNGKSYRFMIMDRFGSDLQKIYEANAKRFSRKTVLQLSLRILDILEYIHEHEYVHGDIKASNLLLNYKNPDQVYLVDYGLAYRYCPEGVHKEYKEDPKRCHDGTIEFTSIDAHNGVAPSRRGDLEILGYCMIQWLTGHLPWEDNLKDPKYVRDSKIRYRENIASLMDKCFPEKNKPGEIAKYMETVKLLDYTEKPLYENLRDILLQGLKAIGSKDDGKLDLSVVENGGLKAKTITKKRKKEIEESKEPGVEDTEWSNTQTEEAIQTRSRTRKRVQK
Protocol: as §1

[5] = target: T5, ~100 representative kinases (Homo sapiens, UniProt Q15375); conditions: Protein EPHA7; average of three replicates
T5 construct: Recombinant protein kinase domains with a concentration of 2 μM
Protocol: as §1

[6] = target: T6, ~100 representative kinases (Homo sapiens, UniProt Q96RR4); conditions: Protein CAMKK2; average of three replicates
T6 construct: Recombinant protein kinase domains with a concentration of 2 μM
T6 sequence (Q96RR4 whole entry, the tested form may be a part): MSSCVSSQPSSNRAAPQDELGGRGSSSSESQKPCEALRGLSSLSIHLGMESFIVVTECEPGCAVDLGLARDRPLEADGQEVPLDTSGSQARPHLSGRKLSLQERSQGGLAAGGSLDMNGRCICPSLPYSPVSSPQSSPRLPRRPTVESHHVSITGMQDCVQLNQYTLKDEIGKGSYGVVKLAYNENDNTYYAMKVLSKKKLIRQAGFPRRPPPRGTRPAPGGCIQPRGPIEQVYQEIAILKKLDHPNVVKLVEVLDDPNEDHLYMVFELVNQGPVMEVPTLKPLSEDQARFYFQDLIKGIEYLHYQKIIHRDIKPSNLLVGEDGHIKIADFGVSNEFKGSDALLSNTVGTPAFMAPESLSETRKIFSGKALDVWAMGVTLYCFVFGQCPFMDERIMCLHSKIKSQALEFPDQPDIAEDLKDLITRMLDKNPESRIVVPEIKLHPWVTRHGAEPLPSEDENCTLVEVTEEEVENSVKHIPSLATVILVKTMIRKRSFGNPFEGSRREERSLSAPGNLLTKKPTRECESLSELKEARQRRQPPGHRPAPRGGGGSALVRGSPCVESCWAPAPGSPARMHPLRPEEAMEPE
Protocol: as §1

[7] = target: T7, ~100 representative kinases (Homo sapiens, UniProt Q9Y2H1); conditions: Protein STK38L; DSF; average of three replicates
T7 construct: Recombinant protein kinase domains with a concentration of 2 μM
T7 sequence (Q9Y2H1 whole entry, the tested form may be a part): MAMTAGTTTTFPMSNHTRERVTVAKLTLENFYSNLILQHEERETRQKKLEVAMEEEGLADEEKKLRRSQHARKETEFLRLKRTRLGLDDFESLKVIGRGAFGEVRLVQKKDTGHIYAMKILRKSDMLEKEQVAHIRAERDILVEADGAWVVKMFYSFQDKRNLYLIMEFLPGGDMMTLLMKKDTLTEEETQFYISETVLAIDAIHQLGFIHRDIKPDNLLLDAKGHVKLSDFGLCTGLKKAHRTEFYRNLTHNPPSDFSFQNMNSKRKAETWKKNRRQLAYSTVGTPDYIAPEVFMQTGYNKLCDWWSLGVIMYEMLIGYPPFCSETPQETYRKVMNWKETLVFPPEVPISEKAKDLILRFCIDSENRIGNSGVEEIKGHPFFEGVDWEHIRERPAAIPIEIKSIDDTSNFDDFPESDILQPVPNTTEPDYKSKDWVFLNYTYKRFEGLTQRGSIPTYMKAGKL
Protocol: as §1

[8] = target: T8, ~100 representative kinases (Homo sapiens, UniProt O96013); conditions: protein PAK4; average of three replicates
T8 construct: Recombinant protein kinase domains with a concentration of 2 μM
Protocol: as §1

[9] = target: T9, ~100 representative kinases (Homo sapiens, UniProt Q9UEE5); conditions: Protein STK17A; DSF; average of three replicates
T9 construct: Recombinant protein kinase domains with a concentration of 2 μM
T9 sequence (Q9UEE5 1-414): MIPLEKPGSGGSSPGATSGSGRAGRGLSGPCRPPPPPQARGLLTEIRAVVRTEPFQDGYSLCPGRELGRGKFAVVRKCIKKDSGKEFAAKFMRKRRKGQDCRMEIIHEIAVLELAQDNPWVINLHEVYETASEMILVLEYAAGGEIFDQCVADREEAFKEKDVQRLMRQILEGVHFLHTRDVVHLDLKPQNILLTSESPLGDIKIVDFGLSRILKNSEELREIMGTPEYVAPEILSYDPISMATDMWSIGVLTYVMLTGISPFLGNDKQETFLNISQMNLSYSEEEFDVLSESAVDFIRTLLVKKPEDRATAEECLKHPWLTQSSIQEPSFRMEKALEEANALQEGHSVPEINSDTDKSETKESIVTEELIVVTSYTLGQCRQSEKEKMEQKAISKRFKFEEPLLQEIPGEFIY
Protocol: as §1

[10] = target: T10, ~100 representative kinases (Homo sapiens, UniProt P53779); conditions: protein MAPK10; average of three replicates
T10 construct: Recombinant protein kinase domains with a concentration of 2 μM
T10 sequence (P53779 whole entry, the tested form may be a part): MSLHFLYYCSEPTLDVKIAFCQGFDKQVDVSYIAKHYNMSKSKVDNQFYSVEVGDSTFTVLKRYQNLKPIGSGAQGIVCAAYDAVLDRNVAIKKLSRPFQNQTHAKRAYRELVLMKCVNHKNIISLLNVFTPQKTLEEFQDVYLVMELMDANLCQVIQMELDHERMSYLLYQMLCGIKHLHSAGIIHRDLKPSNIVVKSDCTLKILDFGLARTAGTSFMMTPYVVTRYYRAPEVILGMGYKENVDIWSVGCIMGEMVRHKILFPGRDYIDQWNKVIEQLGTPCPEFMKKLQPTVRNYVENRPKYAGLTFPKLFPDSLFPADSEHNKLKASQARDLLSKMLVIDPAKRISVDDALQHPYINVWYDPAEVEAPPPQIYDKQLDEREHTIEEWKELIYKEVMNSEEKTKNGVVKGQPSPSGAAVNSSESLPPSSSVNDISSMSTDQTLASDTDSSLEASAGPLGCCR
Protocol: as §1

[11] = target: T11, ~100 representative kinases (Homo sapiens, UniProt Q86V86); conditions: protein PIM3; average of three replicates
T11 construct: Recombinant protein kinase domains with a concentration of 2 μM
Protocol: as §1

[12] = target: T12, ~100 representative kinases (Homo sapiens, UniProt Q9H4A3); conditions: Protein WNK1; DSF; average of three replicates
T12 construct: Recombinant protein kinase domains with a concentration of 2 μM
T12 sequence (Q9H4A3 whole entry, the tested form may be a part): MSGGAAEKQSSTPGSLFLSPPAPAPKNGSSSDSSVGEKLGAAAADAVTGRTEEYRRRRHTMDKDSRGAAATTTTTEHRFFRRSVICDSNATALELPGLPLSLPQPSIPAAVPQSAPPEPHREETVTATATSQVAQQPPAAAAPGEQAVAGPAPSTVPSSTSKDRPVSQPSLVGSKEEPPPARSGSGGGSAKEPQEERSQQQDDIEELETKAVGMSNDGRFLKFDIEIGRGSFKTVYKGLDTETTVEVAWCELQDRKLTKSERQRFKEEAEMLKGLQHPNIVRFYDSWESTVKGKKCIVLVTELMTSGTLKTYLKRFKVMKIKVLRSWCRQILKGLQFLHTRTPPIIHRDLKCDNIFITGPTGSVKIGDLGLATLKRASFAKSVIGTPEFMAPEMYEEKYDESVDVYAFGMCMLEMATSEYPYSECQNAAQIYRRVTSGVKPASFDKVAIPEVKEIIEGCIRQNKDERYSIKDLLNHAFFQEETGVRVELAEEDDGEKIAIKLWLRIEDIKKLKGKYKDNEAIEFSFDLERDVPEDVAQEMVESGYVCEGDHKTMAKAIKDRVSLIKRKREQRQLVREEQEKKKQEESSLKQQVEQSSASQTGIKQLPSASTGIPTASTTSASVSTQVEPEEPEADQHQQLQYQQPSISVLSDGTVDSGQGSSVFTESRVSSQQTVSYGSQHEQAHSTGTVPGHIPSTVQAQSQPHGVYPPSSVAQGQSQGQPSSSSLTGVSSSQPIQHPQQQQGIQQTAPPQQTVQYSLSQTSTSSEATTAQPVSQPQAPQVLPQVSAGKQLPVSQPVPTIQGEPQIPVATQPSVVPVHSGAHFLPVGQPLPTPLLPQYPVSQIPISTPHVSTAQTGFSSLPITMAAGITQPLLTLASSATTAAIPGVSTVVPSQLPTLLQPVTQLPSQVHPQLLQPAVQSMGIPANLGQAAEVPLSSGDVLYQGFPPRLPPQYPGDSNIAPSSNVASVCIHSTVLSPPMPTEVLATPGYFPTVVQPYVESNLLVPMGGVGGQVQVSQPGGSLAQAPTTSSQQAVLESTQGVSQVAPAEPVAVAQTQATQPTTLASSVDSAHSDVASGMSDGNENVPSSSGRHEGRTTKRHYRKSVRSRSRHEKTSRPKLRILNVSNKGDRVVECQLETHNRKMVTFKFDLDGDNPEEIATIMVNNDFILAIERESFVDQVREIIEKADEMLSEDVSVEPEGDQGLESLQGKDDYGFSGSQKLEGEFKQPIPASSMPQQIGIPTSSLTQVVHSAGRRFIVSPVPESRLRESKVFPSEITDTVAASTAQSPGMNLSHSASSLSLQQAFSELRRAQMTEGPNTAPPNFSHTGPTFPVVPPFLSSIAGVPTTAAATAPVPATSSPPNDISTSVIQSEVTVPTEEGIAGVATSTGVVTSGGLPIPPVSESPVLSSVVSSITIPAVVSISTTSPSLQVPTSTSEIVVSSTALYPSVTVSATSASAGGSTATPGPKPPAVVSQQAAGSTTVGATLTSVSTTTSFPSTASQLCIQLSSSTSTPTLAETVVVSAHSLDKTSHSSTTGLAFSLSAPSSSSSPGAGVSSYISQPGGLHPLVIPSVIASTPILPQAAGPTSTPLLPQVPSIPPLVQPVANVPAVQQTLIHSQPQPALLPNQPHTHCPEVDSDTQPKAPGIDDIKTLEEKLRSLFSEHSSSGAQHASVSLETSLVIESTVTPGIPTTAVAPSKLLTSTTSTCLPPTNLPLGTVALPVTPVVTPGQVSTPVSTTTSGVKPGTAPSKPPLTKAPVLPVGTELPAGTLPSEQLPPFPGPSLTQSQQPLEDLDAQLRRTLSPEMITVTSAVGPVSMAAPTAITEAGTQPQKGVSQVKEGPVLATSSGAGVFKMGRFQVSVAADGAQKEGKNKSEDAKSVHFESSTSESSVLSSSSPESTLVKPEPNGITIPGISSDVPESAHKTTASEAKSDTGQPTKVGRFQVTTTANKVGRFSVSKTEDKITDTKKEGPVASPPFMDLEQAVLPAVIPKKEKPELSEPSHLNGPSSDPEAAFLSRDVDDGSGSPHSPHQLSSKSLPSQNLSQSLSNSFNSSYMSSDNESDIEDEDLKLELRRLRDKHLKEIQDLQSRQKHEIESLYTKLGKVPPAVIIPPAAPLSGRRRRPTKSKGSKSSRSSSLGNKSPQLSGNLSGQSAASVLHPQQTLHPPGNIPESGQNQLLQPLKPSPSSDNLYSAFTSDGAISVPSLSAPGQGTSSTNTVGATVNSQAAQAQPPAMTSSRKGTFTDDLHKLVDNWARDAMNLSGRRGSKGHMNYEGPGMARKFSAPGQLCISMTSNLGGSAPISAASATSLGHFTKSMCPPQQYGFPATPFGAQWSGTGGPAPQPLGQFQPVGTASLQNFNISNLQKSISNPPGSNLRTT
Protocol: as §1

SMILES	dTm [1] [K]	dTm [2] [K]	dTm [3] [K]	dTm [4] [K]	dTm [5] [K]	dTm [6] [K]	dTm [7] [K]	dTm [8] [K]	dTm [9] [K]	dTm [10] [K]	dTm [11] [K]	dTm [12] [K]
O=C(Nc1cccc(-c2c[nH]c3ncnc(N4CCOCC4)c23)c1)C1(C(=O)Nc2cccc3c2CCC3)CC1 [Compound 11]	-5.15	2.69	1.62	0.56	1.36	5.02	0.00	0.55	1.27	5.69	0.61	0.35
O=C(Nc1ccccc1)C1(C(=O)Nc2cccc(-c3c[nH]c4ncnc(N5CCOCC5)c34)c2)CC1 [Compound 12]	0.25	1.89	2.26	0.69	-1.64	5.09	0.29	-0.15	0.26	2.45	0.88	-0.065
Cn1cc(-c2c[nH]c3ncnc(N4CCOCC4)c23)cc1C#N [PFE-360]	0.12	-0.81	5.46	0.0159	-0.34	5.91	0.0435	4.09	0.43	-1.02	0.58	0.08
Cc1ccc(C(=O)Nc2ccc(CN3CCN(C)CC3)c(C(F)(F)F)c2)cc1C#Cc1c[nH]c2ncnc(N3CCOCC3)c12 [Compound 1]	1.18	2.40	4.76	-0.0464	1.10	10.65	2.95	0.31	2.74	4.55	2.19	1.39
O=C(Nc1cccc(-c2c[nH]c3ncnc(N4CCOCC4)c23)c1)C1(C(=O)Nc2ccc(F)c(F)c2)CC1 [Compound 17]	0.19	2.10	3.44	1.14	-1.27	6.90	0.13	0.06	0.99	1.84	1.09	0.57
Cc1ccc(C(=O)Nc2ccc(CN3CCN(C)CC3)c(C(F)(F)F)c2)cc1C#Cc1cnc2[nH]ncc2c1 [GZD-824, reference compound]	-2.40	0.14	4.75	0.0366	1.51	8.63	2.07	3.27	0.16	2.46	0.45	0.53

The next lines start with the values.

dTm [1] [K]	dTm [2] [K]	dTm [3] [K]	dTm [4] [K]	dTm [5] [K]	dTm [6] [K]	dTm [7] [K]	dTm [8] [K]	dTm [9] [K]	dTm [10] [K]	dTm [11] [K]	dTm [12] [K]	SMILES
0.70	6.01	16.34	1.63	1.92	12.27	0.64	0.80	4.48	4.27	4.96	1.32	CC(C)(C)c1cc(NC(=O)Nc2cccc(-c3c[nH]c4ncnc(N5CCOCC5)c34)c2)n(-c2ccc3ncccc3c2)n1 [Compound 28]
0.56	3.39	4.42	1.71	0.26	9.58	0.59	0.49	2.92	3.57	1.00	1.16	O=C(Nc1cccc(-c2c[nH]c3ncnc(N4CCOCC4)c23)c1)C1(C(=O)Nc2ccc(F)c(Cl)c2)CC1 [Compound 18]
1.26	5.35	5.09	1.65	2.85	9.18	0.00	1.11	2.37	4.40	-0.34	0.64	O=C(Nc1cccc(-c2c[nH]c3ncnc(N4CCOCC4)c23)c1)C1(C(=O)Nc2ccc(F)c(Br)c2)CC1 [Compound 19]
0.17	2.80	5.99	1.43	-0.92	10.45	0.36	-0.11	2.25	0.56	1.71	0.02	Cc1cc(NC(=O)C2(C(=O)Nc3cccc(-c4c[nH]c5ncnc(N6CCOCC6)c45)c3)CC2)ccc1F [Compound 20]
